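Interpolation was linear, between the two tested concentrations surrounding the appropriate level; five concentrations were tested over 48 hours in 96-well plates. Abbreviation: GI50, concentration required for 50% inhibition of growth. TGI: concentration producing complete growth inhibition.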
How the values were obtained:
Assay in all cases: NCI-60 cell line screen, 48 h
SNB-75 CNS = test system: SNB-75 CNS
CAKI-1 renal = test system: CAKI-1 renal
DU-145 prostate = test system: DU-145 prostate
LOX IMVI melanoma = test system: LOX IMVI melanoma
HS 578T breast = test system: HS 578T breast
UACC-257 melanoma = test system: UACC-257 melanoma
SK-MEL-5 melanoma = test system: SK-MEL-5 melanoma
COLO 205 colon = test system: COLO 205 colon
MCF7 breast = test system: MCF7 breast
SF-539 CNS = test system: SF-539 CNS
HOP-62 NSCLC = test system: HOP-62 NSCLC
HCC-2998 colon = test system: HCC-2998 colon
HCT-116 colon = test system: HCT-116 colon
SR leukemia = test system: SR leukemia
NCI/ADR-RES ovarian = test system: NCI/ADR-RES ovarian
SF-295 CNS = test system: SF-295 CNS
UO-31 renal = test system: UO-31 renal
MDA-MB-435 = test system: MDA-MB-435
SW-620 colon = test system: SW-620 colon
EKVX NSCLC = test system: EKVX NSCLC
SK-MEL-28 melanoma = test system: SK-MEL-28 melanoma
ACHN renal = test system: ACHN renal
HL-60(TB) leukemia = test system: HL-60(TB) leukemia
NCI-H226 lung = test system: NCI-H226 lung
SK-OV-3 ovarian = test system: SK-OV-3 ovarian
HCT-15 colon = test system: HCT-15 colon
RPMI-8226 leukemia = test system: RPMI-8226 leukemia
OVCAR-3 ovarian = test system: OVCAR-3 ovarian
OVCAR-8 ovarian = test system: OVCAR-8 ovarian
OVCAR-5 ovarian = test system: OVCAR-5 ovarian
HOP-92 NSCLC = test system: HOP-92 NSCLC
NCI-H522 lung = test system: NCI-H522 lung
CCRF-CEM leukemia = test system: CCRF-CEM leukemia
MOLT-4 leukemia = test system: MOLT-4 leukemia
MDA-MB-231 breast = test system: MDA-MB-231 breast
K-562 leukemia = test system: K-562 leukemia
TK-10 renal = test system: TK-10 renal
SF-268 CNS = test system: SF-268 CNS
IGROV1 ovarian = test system: IGROV1 ovarian
KM12 colon = test system: KM12 colon
NCI-H460 lung = test system: NCI-H460 lung
SK-MEL-2 melanoma = test system: SK-MEL-2 melanoma
HT29 colon = test system: HT29 colon
A549 NSCLC = test system: A549 NSCLC
NCI-H23 lung = test system: NCI-H23 lung
MALME-3M melanoma = test system: MALME-3M melanoma

For `CCCCCCCCCOc1c(OC)cc(C2CC(=O)Nc3c2c(C)nn3-c2nc3ccccc3[nH]2)cc1OC` (configuration not stated), the GI50 (SNB-75 CNS) was 670 nM, the TGI (SNB-75 CNS) was 1550 nM and the GI50 (CAKI-1 renal) was 917 nM. The TGI (CAKI-1 renal) was 1810 nM, the GI50 (DU-145 prostate) was 1790 nM and the TGI (DU-145 prostate) was over 50000 nM. For the same molecule, the GI50 (LOX IMVI melanoma) was 913 nM, the TGI (LOX IMVI melanoma) was 1670 nM and the GI50 (HS 578T breast) was 622 nM. The TGI (HS 578T breast) was 1970 nM, the GI50 (UACC-257 melanoma) was 1470 nM and the TGI (UACC-257 melanoma) was over 50000 nM. It also gave a GI50 (SK-MEL-5 melanoma) of 871 nM, a TGI (SK-MEL-5 melanoma) of 1560 nM and a GI50 (COLO 205 colon) of 1730 nM. It also gave a TGI (COLO 205 colon) of over 50000 nM, a GI50 (MCF7 breast) of 1590 nM and a TGI (MCF7 breast) of over 50000 nM. It also gave a GI50 (SF-539 CNS) of 851 nM, a TGI (SF-539 CNS) of 1650 nM and a GI50 (HOP-62 NSCLC) of 974 nM. It also gave a TGI (HOP-62 NSCLC) of 2110 nM, a GI50 (HCC-2998 colon) of 1620 nM and a TGI (HCC-2998 colon) of over 50000 nM. For the same molecule, the GI50 (HCT-116 colon) was 1780 nM, the TGI (HCT-116 colon) was over 50000 nM and the GI50 (SR leukemia) was 1570 nM. The TGI (SR leukemia) was 6510 nM, the GI50 (NCI/ADR-RES ovarian) was 1310 nM and the TGI (NCI/ADR-RES ovarian) was 3740 nM. The GI50 (SF-295 CNS) was 816 nM, the TGI (SF-295 CNS) was 1740 nM and the GI50 (UO-31 renal) was 679 nM. The TGI (UO-31 renal) was 1320 nM, the GI50 (MDA-MB-435) was 982 nM and the TGI (MDA-MB-435) was 1990 nM. For the same molecule, the GI50 (SW-620 colon) was 1000 nM, the TGI (SW-620 colon) was 2170 nM and the GI50 (EKVX NSCLC) was 981 nM. The TGI (EKVX NSCLC) was 2320 nM, the GI50 (SK-MEL-28 melanoma) was 897 nM and the TGI (SK-MEL-28 melanoma) was 1810 nM. For the same molecule, the GI50 (ACHN renal) was 1130 nM, the TGI (ACHN renal) was 2790 nM and the GI50 (HL-60(TB) leukemia) was 1580 nM. The TGI (HL-60(TB) leukemia) was 4450 nM, the GI50 (NCI-H226 lung) was 939 nM and the TGI (NCI-H226 lung) was 1840 nM. The GI50 (SK-OV-3 ovarian) was 1060 nM, the TGI (SK-OV-3 ovarian) was 2090 nM and the GI50 (HCT-15 colon) was 1050 nM. The TGI (HCT-15 colon) was 2460 nM, the GI50 (RPMI-8226 leukemia) was 1460 nM and the TGI (RPMI-8226 leukemia) was 4290 nM. For the same molecule, the GI50 (OVCAR-3 ovarian) was 1180 nM, the TGI (OVCAR-3 ovarian) was 2890 nM and the GI50 (OVCAR-8 ovarian) was 1710 nM. It also gave a TGI (OVCAR-8 ovarian) of 7280 nM, a GI50 (OVCAR-5 ovarian) of 881 nM and a TGI (OVCAR-5 ovarian) of 1860 nM. For the same molecule, the GI50 (HOP-92 NSCLC) was 955 nM, the TGI (HOP-92 NSCLC) was 2460 nM and the GI50 (NCI-H522 lung) was 1010 nM. For the same molecule, the TGI (NCI-H522 lung) was 2400 nM, the GI50 (CCRF-CEM leukemia) was 1720 nM and the TGI (CCRF-CEM leukemia) was over 50000 nM. The GI50 (MOLT-4 leukemia) was 1340 nM, the TGI (MOLT-4 leukemia) was 3250 nM and the GI50 (MDA-MB-231 breast) was 975 nM. The TGI (MDA-MB-231 breast) was 1870 nM, the GI50 (K-562 leukemia) was 1810 nM and the TGI (K-562 leukemia) was over 50000 nM. The GI50 (TK-10 renal) was 1270 nM, the TGI (TK-10 renal) was 3830 nM and the GI50 (SF-268 CNS) was 1040 nM. For the same molecule, the TGI (SF-268 CNS) was 2570 nM, the GI50 (IGROV1 ovarian) was 890 nM and the TGI (IGROV1 ovarian) was 1770 nM. For the same molecule, the GI50 (KM12 colon) was 1170 nM, the TGI (KM12 colon) was 3080 nM and the GI50 (NCI-H460 lung) was 928 nM. It also gave a TGI (NCI-H460 lung) of 1800 nM, a GI50 (SK-MEL-2 melanoma) of 1410 nM and a TGI (SK-MEL-2 melanoma) of 4310 nM. For the same molecule, the GI50 (HT29 colon) was 1640 nM, the TGI (HT29 colon) was over 50000 nM and the GI50 (A549 NSCLC) was 1080 nM. The TGI (A549 NSCLC) was 2350 nM, the GI50 (NCI-H23 lung) was 904 nM and the TGI (NCI-H23 lung) was 1830 nM. The GI50 (MALME-3M melanoma) was 914 nM and the TGI (MALME-3M melanoma) was 1920 nM.

Reference: PubChem BioAssay (NCI)
